In patent publication US8026218B2, “Bifunctional analgesic compounds for opioid receptor agonists and neurokinin-1 receptor antagonists” (The University of Arizona, priority 2006, dated 2011):
Converted amounts (≈) assume the structure as drawn. Read-outs that look alike come from different tables or passages of the source.

How the values were obtained:
[1] = molecular target: rNK1 (Rattus norvegicus, UniProt P14600); details: previous studies; read-out: Affinity (Ki in nM), rNK1; cited from earlier work
Chain of rNK1 (P14600 whole entry): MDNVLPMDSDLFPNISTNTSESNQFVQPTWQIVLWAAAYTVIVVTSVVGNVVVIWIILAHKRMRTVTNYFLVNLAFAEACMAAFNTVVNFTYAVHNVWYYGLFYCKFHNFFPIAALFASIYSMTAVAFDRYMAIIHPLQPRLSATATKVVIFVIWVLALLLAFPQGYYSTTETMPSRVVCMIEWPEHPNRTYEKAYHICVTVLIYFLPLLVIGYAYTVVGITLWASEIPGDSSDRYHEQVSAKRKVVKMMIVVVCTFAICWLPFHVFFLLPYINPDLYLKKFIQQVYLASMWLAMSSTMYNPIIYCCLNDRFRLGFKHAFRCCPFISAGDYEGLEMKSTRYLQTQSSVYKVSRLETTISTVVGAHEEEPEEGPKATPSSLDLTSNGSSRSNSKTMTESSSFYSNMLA

[2] = molecular target: MOR (Homo sapiens, UniProt P35372); details: previous studies; read-out: Affinity (Ki in nM), MOR; cited from earlier work
Chain of MOR (P35372 whole entry): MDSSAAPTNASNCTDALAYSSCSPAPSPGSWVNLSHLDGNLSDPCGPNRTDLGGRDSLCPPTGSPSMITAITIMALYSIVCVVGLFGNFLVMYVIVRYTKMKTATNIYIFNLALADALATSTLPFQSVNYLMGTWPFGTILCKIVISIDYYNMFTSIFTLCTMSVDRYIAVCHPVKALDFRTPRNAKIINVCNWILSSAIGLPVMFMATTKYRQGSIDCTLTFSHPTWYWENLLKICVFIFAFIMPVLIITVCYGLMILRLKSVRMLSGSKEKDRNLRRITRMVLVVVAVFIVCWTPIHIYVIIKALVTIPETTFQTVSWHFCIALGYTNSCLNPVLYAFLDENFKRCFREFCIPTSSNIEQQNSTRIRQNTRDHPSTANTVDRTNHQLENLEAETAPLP

[3] = tested on: μ opioid receptors (GPI); experiment: Guinea pig isolated ileum (GPI) assay, opioid agonist;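 further: inhibition of electrically evoked contractions (0.1 Hz, 0.4 msec, supramaximal voltage) in organ baths at 37 °C, contraction height 3 min after each cumulative dose versus the 1 min before dosing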
[4] = Solubility in HEPES buffer; type: physicochemical
Protocol: Solubility. HEPES buffer (0.05 M HEPES buffer in 0.1 M NaCl, pH 7.4, 500 μL) was added to 1 mg of compound. The sample was vortexed for 30 sec, sonicated for 5 min, shaken at r.t. for 2 h, and then allowed to be stayed overnight to equilibration. The sample was filtrated with an Acrodisc Syringe Filter (13 mm, 0.45 μm pore, PTFE membrane, Pall Life Sciences, East Hills, N.Y.).

[5] = Octanol/saline distribution (logD7.4); type: physicochemical
Protocol: HEPES buffer (0.05 M HEPES buffer in 0.1 M NaCl, pH 7.4, 500 μL) was added to 2 mg of compound and mixed with 500 μL of 1-octanol. The sample was shaken at r.t. for 12 h to allow equilibrating. The sample was centrifuged at 6500 rpm in a VanGuard V6500 (GlaxoSmithKline, Research Triangle Park, N.C.) for 15 min. The layers were separated and each layer was centrifuged once again. The compound concentrations of obtained layers were analyzed by HPLC (30-70% of acetonitrile containing 0.1% TFA within 20 min and up to 95% within additional 5 min, 1 mL/min, 230 nm, Vydac 218TP104 C-18 column). The logarithm of 1-octanol/saline distribution (logD7.4) was calculated as the ratio of compound concentration in the 1-octanol and saline phases.
Octanol/saline distribution (logD7.4) (Yamamoto, 2007, J. Med. Chem., submitted). HEPES buffer (0.05 M HEPES buffer in 0.1 M NaCl, pH 7.4, 500 μL) was added to 2 mg of compound and mixed with 500 μL of 1-octanol. The sample was shaken at r.t. for 12 h to allow equilibrating. The sample was centrifuged at 6500 rpm in a VanGuard V6500 (GlaxoSmithKline, Research Triangle Park, N.C.) for 15 min. The layers were separated and each layer was centrifuged once again. The compound concentrations in the obtained layers were analyzed by HPLC (30-70% of acetonitrile containing 0.1% TFA within 20 min and up to 95% within additional 5 min, 1 mL/min, 230 nm, Vydac 218TP104 C-18 column). The logarithm of 1-octanol/saline distribution (logD7.4) was calculated as the ratio of compound concentration in the 1-octanol and saline phases.

[6] = molecular target: T1, δ opioid receptors (MVD) (Mus musculus, UniProt P32300); experiment: Mouse isolated vas deferens (MVD) assay, opioid agonist
T1 construct: from tissue; host or cells: mouse (ICR) isolated vas deferens
T1 sequence (P32300 whole entry): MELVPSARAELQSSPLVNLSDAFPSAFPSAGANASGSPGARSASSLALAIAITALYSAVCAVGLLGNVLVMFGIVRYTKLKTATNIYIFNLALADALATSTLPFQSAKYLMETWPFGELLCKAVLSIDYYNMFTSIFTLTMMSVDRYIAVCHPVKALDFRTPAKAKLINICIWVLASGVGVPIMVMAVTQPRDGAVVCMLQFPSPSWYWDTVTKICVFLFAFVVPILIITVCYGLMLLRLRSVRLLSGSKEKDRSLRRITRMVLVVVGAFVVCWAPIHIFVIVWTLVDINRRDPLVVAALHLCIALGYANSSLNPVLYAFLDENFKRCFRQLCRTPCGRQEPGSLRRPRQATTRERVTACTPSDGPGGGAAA

[7] = molecular target: T2, human δ opioid receptors (hDOR) (Homo sapiens, UniProt P41143); experiment: [35S]GTP-γ-S binding assay, hDOR; type: biochemical
T2 construct: expressed in transfected cells; host or cells: HN9.10 neuroblastoma cell line, pCDNA3, neomycin-selected clones
T2 sequence (P41143 whole entry): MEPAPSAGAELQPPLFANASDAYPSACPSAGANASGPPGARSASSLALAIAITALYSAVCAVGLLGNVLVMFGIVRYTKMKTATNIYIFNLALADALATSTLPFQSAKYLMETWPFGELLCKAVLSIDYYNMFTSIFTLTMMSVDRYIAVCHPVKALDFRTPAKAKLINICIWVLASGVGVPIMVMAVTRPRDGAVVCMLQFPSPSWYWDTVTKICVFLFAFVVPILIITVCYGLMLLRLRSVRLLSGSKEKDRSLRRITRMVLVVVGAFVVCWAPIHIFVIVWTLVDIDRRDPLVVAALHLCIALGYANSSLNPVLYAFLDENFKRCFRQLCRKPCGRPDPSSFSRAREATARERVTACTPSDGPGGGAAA

[8] = molecular target: T3, Substance P receptors (guinea pig NK1) (Cavia porcellus, UniProt P30547); experiment: Guinea pig isolated ileum (GPI) assay with substance P stimulation in presence of 1 μM naloxone; details: for GPI/LMMP SP Agonist (IC50; nM): Table 39
T3 construct: from tissue; host or cells: guinea pig (Hartley) ileum LMMP, 1 μM naloxone present
T3 sequence (P30547 whole entry): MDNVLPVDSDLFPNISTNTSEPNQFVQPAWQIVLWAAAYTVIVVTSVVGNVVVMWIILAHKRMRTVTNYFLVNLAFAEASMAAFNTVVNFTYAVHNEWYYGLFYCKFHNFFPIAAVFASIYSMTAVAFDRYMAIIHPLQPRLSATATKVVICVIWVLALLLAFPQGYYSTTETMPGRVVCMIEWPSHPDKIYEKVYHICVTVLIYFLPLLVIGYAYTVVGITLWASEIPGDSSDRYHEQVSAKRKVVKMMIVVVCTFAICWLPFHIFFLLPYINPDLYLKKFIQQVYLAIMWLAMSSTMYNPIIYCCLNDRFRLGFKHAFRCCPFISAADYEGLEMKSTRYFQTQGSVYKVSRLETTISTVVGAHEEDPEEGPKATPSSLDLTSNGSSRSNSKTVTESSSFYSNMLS

[9] = molecular target: T4, human NK1 receptor (hNK1) (Homo sapiens, UniProt P25103); experiment: Radioligand competition binding, [3H]-Substance P, hNK1
T4 construct: expressed in transfected cells
T4 sequence (P25103 whole entry): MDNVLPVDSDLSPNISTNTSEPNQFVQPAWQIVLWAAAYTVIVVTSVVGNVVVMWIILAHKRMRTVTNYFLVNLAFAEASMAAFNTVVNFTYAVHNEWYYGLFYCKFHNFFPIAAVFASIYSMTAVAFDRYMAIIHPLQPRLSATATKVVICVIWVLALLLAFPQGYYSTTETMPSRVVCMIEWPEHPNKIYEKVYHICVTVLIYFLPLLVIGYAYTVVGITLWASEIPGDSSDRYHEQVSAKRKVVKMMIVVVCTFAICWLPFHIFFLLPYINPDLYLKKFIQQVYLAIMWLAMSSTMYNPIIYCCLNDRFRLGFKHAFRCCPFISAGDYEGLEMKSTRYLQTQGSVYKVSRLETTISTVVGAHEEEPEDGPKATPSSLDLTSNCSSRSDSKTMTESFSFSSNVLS

[10] = molecular target: T5, rat μ opioid receptors (rMOR) (Rattus norvegicus, UniProt P33535); experiment: Radioligand competition binding, [3H]DAMGO, rMOR membranes
T5 construct: expressed in transfected cells; host or cells: HN9.10 neuroblastoma cell line, pCDNA3, neomycin-selected clones
T5 sequence (P33535 whole entry): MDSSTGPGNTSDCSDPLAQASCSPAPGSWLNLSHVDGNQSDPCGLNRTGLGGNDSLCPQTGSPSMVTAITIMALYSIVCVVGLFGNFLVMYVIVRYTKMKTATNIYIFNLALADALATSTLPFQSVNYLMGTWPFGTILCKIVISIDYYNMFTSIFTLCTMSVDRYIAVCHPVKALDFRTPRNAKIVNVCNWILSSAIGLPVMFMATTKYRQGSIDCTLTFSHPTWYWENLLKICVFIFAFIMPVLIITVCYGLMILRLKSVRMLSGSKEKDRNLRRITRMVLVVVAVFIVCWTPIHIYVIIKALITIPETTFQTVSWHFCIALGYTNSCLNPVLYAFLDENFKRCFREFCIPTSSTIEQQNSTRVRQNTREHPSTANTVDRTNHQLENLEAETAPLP

[11] = molecular target: T5, rat μ opioid receptors (rMOR); experiment: biochemical; type: biochemical
[12] = molecular target: T6, rat NK1 (rNK1) receptor (Rattus norvegicus, UniProt P14600); experiment: Radioligand competition binding, [3H]substance P, rNK1/CHO membranes; details: for IC50: membranes from transfected CHO cells
T6 construct: expressed in transfected cells; host or cells: CHO (rNK-1/CHO cell line from Dr. James Krause)
T6 sequence (P14600 whole entry): as the sequence (P14600 whole entry) above

[13] = molecular target: T2, human δ opioid receptors (hDOR); experiment: Radioligand competition binding, [3H]DPDPE, hDOR membranes
[14] = Brain distribution, in situ perfusion model; type: in vivo; details: FIG. 20
[15] = Table 39, read-out: GPI/LMMP opioid(mu) agonist (IC50; nM)
[16] = Table 39, read-out: GTP binding hDOR Emax
[17] = GPI/LMMP SP Antagonist (Ke; nM), Table 24
[18] = read-out: GTP binding rMOR Emax
[19] = read-out: GTP binding rMOR Emax (%)
[20] = electrically stimulated isolated tissue, read-out: GPI (μ), IC50
[21] = membranes from transfected HN9.10 cells

Compound: HTyrProPhePheProLeuMetNH2 (H-YPFFPLM-NH2) [ESP6]
- Ki [1]: 305 nM
- Ki [2]: 92 nM

Compound: HTyrProPhePheGlyLeuMetNH2 (H-YPFFGLM-NH2) [ESP7]
- Ki [1]: 289 nM
- Ki [2]: 218 nM

Compound: HTyrDAlaGlyPheNHNHTrpCbz [AA501]
- Ki [1]: 5000 nM
- Ki [2]: 80 nM

Compound: CCCC[C@H](NC(=O)[C@H](Cc1ccccc1)NC(=O)CNC(=O)[C@@H](C)NC(=O)[C@@H](N)Cc1ccc(O)cc1)C(=O)N1CCC[C@H]1C(=O)N[C@@H](CC(C)C)C(=O)N[C@@H](Cc1c[nH]c2ccccc12)C(=O)NCc1cc(C(F)(F)F)cc(C(F)(F)F)c1 [TY045]
- IC50 ([3]; Table 24, read-out: GPI/LMMP Opioid (μ) Agonist (IC50; nM)): 463 nM
- IC50 [3, 15]: 463 nM
- solubility ([4]; Table 26, HEPES buffer pH 7.4): < 1 µg/mL
- logD7.4 ([5]; Table 26, pH 7.4): >3.0
- IC50 [6]: 13.6 nM
- Emax ([7]; Table 24, read-out: GTP binding hDOR Emax (%)): 125%
- Emax [7, 16]: 125%
- Kb [8, 17]: 40.8 nM

Compound: CCCC[C@H](NC(=O)[C@H](Cc1ccccc1)NC(=O)CNC(=O)[C@@H](C)NC(=O)[C@@H](N)Cc1ccc(O)cc1)C(=O)N[C@@H](COC1O[C@H](CO)[C@@H](O)[C@H](O)[C@H]1O)C(=O)N[C@@H](CC(C)C)C(=O)N[C@@H](Cc1c[nH]c2ccccc12)C(=O)NCc1cc(C(F)(F)F)cc(C(F)(F)F)c1 (stereo partly drawn) [TY044]
- Ki [9]: 1.3 nM
- solubility thermodynamic ([4]; Table 26, HEPES buffer pH 7.4): < 1 µg/mL
- Ki [10]: 3370 nM
- IC50 [6]: 18 nM
- EC50 ([11]; GTP binding rMOR EC50 (nM)): 380 nM
- Emax [11, 18]: 85%
- Emax [11, 19]: 85%
- Kb [8, 17]: 18.4 nM

Compound: CSCC[C@H](NC(=O)[C@H](Cc1ccccc1)NC(=O)CNC(=O)[C@@H](C)NC(=O)[C@@H](N)Cc1ccc(O)cc1)C(=O)N1CCC[C@H]1C(=O)N[C@@H](CC(C)C)C(=O)N[C@@H](Cc1c[nH]c2ccccc12)C(=O)NCc1cc(C(F)(F)F)cc(C(F)(F)F)c1 [TY027, H-Tyr-D-Ala-Gly-Phe-Met-Pro-Leu-Trp-NH-3,5-Bzl(CF3)2]
- IC50 ([3]; Table 16, electrically stimulated isolated tissue, read-out: Opioid agonist GPI (μ), IC50): 490 ± 29 nM
- IC50 ([3]; Table 22, electrically stimulated isolated tissue, read-out: Opioid agonist GPI (μ), IC50): 490 ± 29 nM
- IC50 ([3]; Table 30, read-out: GPI/LMMP Opioid(m) Agonist (IC50; nM)): 488 nM
- IC50 [3, 15]: 488 nM
- IC50 [3, 20]: 490 nM
- species difference between affinities at rNK1 and hNK1 ([9]; Ki rNK1 vs Ki hNK1): 1100 fold
- solubility ([4]; pH 7.4, 0.05 N HEPES buffer in 0.1 N NaCl solution): < 0.2 µg/mL
- logD7.4 ([5]; 0.05 N HEPES buffer in 0.1 N NaCl): >4.0
- IC50 [6]: 14.5 nM
- Kb ([8]; Substance P antagonist, GPI, Ke (nM), Table 16, in the presence of 1 μM naloxone): 10 ± 2.1 nM
- Ki ([12]; Table 29, read-out: Affinity rNK1 (Ki; nM)): 7.27 nM

Compound: CC(C)C[C@H](NC(=O)[C@@H]1CCCN1C(=O)C(COC1OC(CO)C(O)C(O)C1O)NC(=O)[C@H](Cc1ccccc1)NC(=O)CNC(=O)[C@@H](C)NC(=O)[C@@H](N)Cc1ccc(O)cc1)C(=O)N[C@@H](Cc1c[nH]c2ccccc12)C(=O)NCc1cc(C(F)(F)F)cc(C(F)(F)F)c1 (stereo partly drawn) [TY042]
- solubility ([4]; Table 26, HEPES buffer pH 7.4): 1.4 µg/mL (≈ 1.05 µM)
- Emax ([11]; Table 24, read-out: GTP binding rMOR Emax (%)): 28%
- Emax ([11]; Table 39, read-out: GTP binding rMOR Emax): 28%
- Emax ([7]; read-out: GTP binding hDOR Emax): 47%
- Emax ([7]; read-out: GTP binding hDOR Emax (%)): 47%
- GPI/LMMP SP Agonist (IC50; nM) ([8]; at 10 nM): none

Compound: CC(C)C[C@H](NC(=O)[C@@H]1CCCN1C(=O)[C@H](CC(C)C)NC(=O)[C@H](Cc1ccccc1)NC(=O)CNC(=O)[C@@H](C)NC(=O)[C@@H](N)Cc1ccc(O)cc1)C(=O)N[C@@H](Cc1c[nH]c2ccccc12)C(=O)OCc1cc(C(F)(F)F)cc(C(F)(F)F)c1 [TY004, H-Tyr-D-Ala-Gly-Phe-Leu-Pro-Leu-Trp-O-3,5-Bzl(CF3)2]
- IC50 ([3]; Table 28, read-out: GPI/LMMP Opioid(m) Agonist (IC50; nM)): 341 nM
- IC50 [3, 15]: 341 nM
- IC50 [3, 20]: 341 ± 71 nM
- Ki [9]: 0.016 nM
- Ki [10]: 23.3 nM
- LogIC50, rMOR, [3H]DAMGO [10, 21]: −7.30 ± 0.07
- IC50 [6]: 101 nM
- δ selectivity in MVD and GPI assays [6]: 3.4 fold
- IC50(MVD)/IC50(GPI) ([6]; Table 4): 3.4
- IC50 ([6]; electrically stimulated isolated tissue, read-out: MVD (δ), IC50): 101 ± 25 nM
- Ki [13]: 23.3 nM
- δ selectivity over μ in binding assays ([13]; Ki(μ)/Ki(δ)): 4.7 fold
- Ki ([13]; Table 27, read-out: Affinity hDOR (Ki; nM)): 5 nM
- Ki ([13]; Table 39, read-out: Affinity hDOR (Ki; nM)): 5 nM
- Ki(μ)/Ki(δ) ([13]; binding, rMOR vs hDOR): 4.7
- LogIC50, hDOR, [3H]DPDPE [13, 21]: −7.97 ± 0.07
- Ki ([13]; read-out: Ki, hDOR, [3H]DPDPE): 5 nM
- blood brain barrier penetration [14]: penetrate blood brain barrier
- LogEC50, rMOR, [35S]GTP-γ-S binding [11]: −7.48 ± 0.16
- EC50 ([11]; GTP binding rMOR EC50): 39.8 nM
- EC50 ([11]; read-out: EC50, rMOR, [35S]GTP-γ-S binding): 33 nM
- Emax ([11]; read-out: Emax, rMOR, [35S]GTP-γ-S binding): 46%
- Emax [11, 18]: 44.5%
- Emax [11, 19]: 44.5%
- Ki(μ)/Ki(δ) [7]: 3.4
- LogEC50, hDOR, [35S]GTP-γ-S binding [7]: −8.09 ± 0.18
- δ selectivity in [35S]GTP-γ-S binding assays [7]: 3.4 fold
- EC50 ([7]; Table 27, read-out: GTP binding hDOR EC50): 9.6 nM
- Emax ([7]; Table 27, read-out: GTP binding hDOR Emax (%)): 42.5%
- EC50 ([7]; Table 39, read-out: GTP binding hDOR EC50): 9.6 nM
- Emax [7, 16]: 42.5%
- Emax ([7]; net total bound/basal binding × 100, read-out: Emax, hDOR, [35S]GTP-γ-S binding): 44%
- EC50 ([7]; read-out: EC50, hDOR, [35S]GTP-γ-S binding): 9.6 nM
- IC50 [8]: 19.4 nM
- Kb ([8]; Substance P antagonist, GPI, Ke, in the presence of 1 μM naloxone): 19.4 ± 5 nM
- GPI/LMMP SP Agonist (IC50; nM) ([8]; concentration not given): none
- activation at 1 µM ([8]; read-out: Substance P GPI agonist (A50), at 1 μM, contraction relative to initial muscle contraction with KCl): 0%
- IC50 ([12]; IC50, rNK1, Substance P radioligand): 20.9 nM
- IC50 ([12]; LogIC50, rNK1, Substance P radioligand): 20 nM
